Experimental data published in US20060069132A1, “Azolecarboxamide herbicides” (priority 2004, published 2006).

Columns and labels:
Assay in all cases: Test E pre-/postemergence herbicide test
common groundsel = assay type: in vivo, Senecio vulgaris
In short: (§1)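 Ratings from 0 (no effect) to 100 (complete control) were assigned by visual comparison with untreated plants 12 to 14 days after application. Test chemicals, formulated with surfactant in a non-phytotoxic solvent blend, were applied to soil after planting or to foliage of 2–18 cm plants.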

guineagrass = assay type: in vivo, Panicum maximum
In short: as §1

large crabgrass = assay type: in vivo, Digitaria sanguinalis
In short: as §1

downy bromegrass = assay type: in vivo, Bromus tectorum
In short: as §1

goosegrass = assay type: in vivo, Eleusine indica
In short: as §1

common mallow = assay type: in vivo, Malva sylvestris
In short: as §1

pitted morningglory = assay type: in vivo, Ipomoea lacunosa
In short: as §1

Canada horseweed = assay type: in vivo, Erigeron Canadensis
In short: as §1

[1] = Postemergence, 500 g ai/ha, scale 0 to 100
[2] = Postemergence, 250 g ai/ha, scale 0 to 100
[3] = Preemergence, 62 g ai/ha, scale 0 to 100
[4] = Preemergence, 125 g ai/ha, scale 0 to 100
[5] = Preemergence, 250 g ai/ha, scale 0 (no effect) to 100 (complete control)
[6] = Preemergence, 500 g ai/ha, scale 0 (no effect) to 100 (complete control)
[7] = postemergence, 125 g ai/ha, scale 0 to 100
[8] = postemergence, 62 g ai/ha, scale 0 to 100

Structure (SMILES): CCn1nc(C(C)(C)C)cc1C(=O)Nc1cc(C(=O)N(C)C)ccn1 [Compound 156, 2-[[[3-(1,1-dimethylethyl)-1-ethyl-1H-pyrazol-5-yl]carbonyl]amino]-N,N-dimethyl-4-pyridinecarboxamide]
- Plant response rating, Groundsel (common groundsel; [1]): 100
- Plant response rating, Groundsel (common groundsel; [2]): 100
- Plant response rating, Groundsel (common groundsel; [3]): 100
- Plant response rating, Groundsel (common groundsel; [4]): 100
- Plant response rating, Groundsel (common groundsel; [5]): 100
- Plant response rating, Groundsel (common groundsel; [6]): 100
- Plant response rating, Groundsel (common groundsel; [7]): 100
- Plant response rating, Groundsel (common groundsel; [8]): 80
- Plant response rating, Guineagrass (guineagrass; [1]): 98
- Plant response rating, Guineagrass (guineagrass; [2]): 95
- Plant response rating, Guineagrass (guineagrass; [3]): 90
- Plant response rating, Guineagrass (guineagrass; [4]): 100
- Plant response rating, Guineagrass (guineagrass; [5]): 100
- Plant response rating, Guineagrass (guineagrass; [6]): 100
- Plant response rating, Guineagrass (guineagrass; [7]): 90
- Plant response rating, Guineagrass (guineagrass; [8]): 60
- Plant response rating, Crabgrass, Large (large crabgrass; [1]): 98
- Plant response rating, Crabgrass, Large (large crabgrass; [2]): 95
- Plant response rating, Crabgrass, Large (large crabgrass; [4]): 90
- Plant response rating, Crabgrass, Large (large crabgrass; [5]): 95
- Plant response rating, Crabgrass, Large (large crabgrass; [6]): 95
- Plant response rating, Crabgrass, Large (large crabgrass; [7]): 80
- Plant response rating, Crabgrass, Large (large crabgrass; [8]): 35
- Plant response rating, Bromegrass, Downy (downy bromegrass; [1]): 100
- Plant response rating, Bromegrass, Downy (downy bromegrass; [2]): 100
- Plant response rating, Bromegrass, Downy (downy bromegrass; [3]): 60
- Plant response rating, Bromegrass, Downy (downy bromegrass; [4]): 80
- Plant response rating, Bromegrass, Downy (downy bromegrass; [5]): 100
- Plant response rating, Bromegrass, Downy (downy bromegrass; [6]): 100
- Plant response rating, Bromegrass, Downy (downy bromegrass; [7]): 100
- Plant response rating, Bromegrass, Downy (downy bromegrass; [8]): 90
- Plant response rating, Goosegrass (goosegrass; [1]): 98
- Plant response rating, Goosegrass (goosegrass; [2]): 98
- Plant response rating, Goosegrass (goosegrass; [3]): 95
- Plant response rating, Goosegrass (goosegrass; [4]): 95
- Plant response rating, Goosegrass (goosegrass; [5]): 100
- Plant response rating, Goosegrass (goosegrass; [6]): 100
- Plant response rating, Goosegrass (goosegrass; [7]): 98
- Plant response rating, Goosegrass (goosegrass; [8]): 95
- Plant response rating, Mallow (common mallow; [1]): 100
- Plant response rating, Mallow (common mallow; [2]): 95
- Plant response rating, Mallow (common mallow; [3]): 70
- Plant response rating, Mallow (common mallow; [4]): 100
- Plant response rating, Mallow (common mallow; [5]): 100
- Plant response rating, Mallow (common mallow; [6]): 100
- Plant response rating, Mallow (common mallow; [7]): 90
- Plant response rating, Mallow (common mallow; [8]): 80
- Plant response rating, Morningglory (pitted morningglory; [1]): 90
- Plant response rating, Morningglory (pitted morningglory; [2]): 80
- Plant response rating, Morningglory (pitted morningglory; [3]): 30
- Plant response rating, Morningglory (pitted morningglory; [4]): 100
- Plant response rating, Morningglory (pitted morningglory; [5]): 100
- Plant response rating, Morningglory (pitted morningglory; [6]): 100
- Plant response rating, Morningglory (pitted morningglory; [7]): 65
- Plant response rating, Morningglory (pitted morningglory; [8]): 10
- Plant response rating, Horseweed (Canada horseweed; [1]): 100
- Plant response rating, Horseweed (Canada horseweed; [2]): 100
- Plant response rating, Horseweed (Canada horseweed; [3]): 95
- Plant response rating, Horseweed (Canada horseweed; [4]): 100
- Plant response rating, Horseweed (Canada horseweed; [5]): 100
- Plant response rating, Horseweed (Canada horseweed; [6]): 100

Structure (SMILES): CCc1nn(C(C)C)nc1C(=O)Nc1cccc(C(=O)N(C)CC)c1 [Compound 386]
- Plant response rating, Groundsel (common groundsel; [4]): 30
- Plant response rating, Groundsel (common groundsel; [5]): 50
- Plant response rating, Guineagrass (guineagrass; [4]): 80
- Plant response rating, Guineagrass (guineagrass; [5]): 100
- Plant response rating, Crabgrass, Large (large crabgrass; [4]): 95
- Plant response rating, Crabgrass, Large (large crabgrass; [5]): 95
- Plant response rating, Bromegrass, Downy (downy bromegrass; [4]): 10
- Plant response rating, Bromegrass, Downy (downy bromegrass; [5]): 40
- Plant response rating, Goosegrass (goosegrass; [4]): 80
- Plant response rating, Goosegrass (goosegrass; [5]): 95
- Plant response rating, Mallow (common mallow; [4]): 60
- Plant response rating, Mallow (common mallow; [5]): 70
- Plant response rating, Morningglory (pitted morningglory; [4]): 20
- Plant response rating, Morningglory (pitted morningglory; [5]): 40
- Plant response rating, Horseweed (Canada horseweed; [4]): 75
- Plant response rating, Horseweed (Canada horseweed; [5]): 95

Structure (SMILES): CCNC(=O)c1ccc(F)c(NC(=O)c2cn(C(C)(C)C)nc2CC)c1 [Compound 193]
- Plant response rating, Groundsel (common groundsel; [1]): 100
- Plant response rating, Groundsel (common groundsel; [2]): 70
- Plant response rating, Groundsel (common groundsel; [3]): 20
- Plant response rating, Groundsel (common groundsel; [4]): 100
- Plant response rating, Groundsel (common groundsel; [5]): 100
- Plant response rating, Groundsel (common groundsel; [6]): 100
- Plant response rating, Groundsel (common groundsel; [7]): 40
- Plant response rating, Groundsel (common groundsel; [8]): 20
- Plant response rating, Guineagrass (guineagrass; [1]): 100
- Plant response rating, Guineagrass (guineagrass; [2]): 70
- Plant response rating, Guineagrass (guineagrass; [3]): 60
- Plant response rating, Guineagrass (guineagrass; [4]): 70
- Plant response rating, Guineagrass (guineagrass; [5]): 100
- Plant response rating, Guineagrass (guineagrass; [6]): 100
- Plant response rating, Guineagrass (guineagrass; [7]): 60
- Plant response rating, Guineagrass (guineagrass; [8]): 20
- Plant response rating, Crabgrass, Large (large crabgrass; [1]): 100
- Plant response rating, Crabgrass, Large (large crabgrass; [2]): 100
- Plant response rating, Crabgrass, Large (large crabgrass; [3]): 60
- Plant response rating, Crabgrass, Large (large crabgrass; [4]): 80
- Plant response rating, Crabgrass, Large (large crabgrass; [5]): 100
- Plant response rating, Crabgrass, Large (large crabgrass; [6]): 100
- Plant response rating, Crabgrass, Large (large crabgrass; [7]): 80
- Plant response rating, Crabgrass, Large (large crabgrass; [8]): 10
- Plant response rating, Bromegrass, Downy (downy bromegrass; [1]): 80
- Plant response rating, Bromegrass, Downy (downy bromegrass; [2]): 70
- Plant response rating, Bromegrass, Downy (downy bromegrass; [3]): 10
- Plant response rating, Bromegrass, Downy (downy bromegrass; [4]): 30
- Plant response rating, Bromegrass, Downy (downy bromegrass; [5]): 80
- Plant response rating, Bromegrass, Downy (downy bromegrass; [6]): 90
- Plant response rating, Bromegrass, Downy (downy bromegrass; [7]): 30
- Plant response rating, Bromegrass, Downy (downy bromegrass; [8]): 20
- Plant response rating, Goosegrass (goosegrass; [1]): 85
- Plant response rating, Goosegrass (goosegrass; [2]): 80
- Plant response rating, Goosegrass (goosegrass; [3]): 30
- Plant response rating, Goosegrass (goosegrass; [4]): 80
- Plant response rating, Goosegrass (goosegrass; [5]): 90
- Plant response rating, Goosegrass (goosegrass; [6]): 95
- Plant response rating, Goosegrass (goosegrass; [7]): 70
- Plant response rating, Goosegrass (goosegrass; [8]): 20
- Plant response rating, Mallow (common mallow; [1]): 90
- Plant response rating, Mallow (common mallow; [2]): 90
- Plant response rating, Mallow (common mallow; [3]): 60
- Plant response rating, Mallow (common mallow; [4]): 95
- Plant response rating, Mallow (common mallow; [5]): 95
- Plant response rating, Mallow (common mallow; [6]): 95
- Plant response rating, Mallow (common mallow; [7]): 60
- Plant response rating, Mallow (common mallow; [8]): 20
- Plant response rating, Morningglory (pitted morningglory; [1]): 75
- Plant response rating, Morningglory (pitted morningglory; [2]): 60
- Plant response rating, Morningglory (pitted morningglory; [3]): 0
- Plant response rating, Morningglory (pitted morningglory; [4]): 20
- Plant response rating, Morningglory (pitted morningglory; [5]): 50
- Plant response rating, Morningglory (pitted morningglory; [6]): 70
- Plant response rating, Morningglory (pitted morningglory; [7]): 60
- Plant response rating, Morningglory (pitted morningglory; [8]): 30
- Plant response rating, Horseweed (Canada horseweed; [1]): 90
- Plant response rating, Horseweed (Canada horseweed; [2]): 70
- Plant response rating, Horseweed (Canada horseweed; [3]): 80
- Plant response rating, Horseweed (Canada horseweed; [4]): 100
- Plant response rating, Horseweed (Canada horseweed; [5]): 100
- Plant response rating, Horseweed (Canada horseweed; [6]): 100
- Plant response rating, Horseweed (Canada horseweed; [7]): 50
- Plant response rating, Horseweed (Canada horseweed; [8]): 50

Structure (SMILES): CCc1nn(C(C)C)nc1C(=O)Nc1cccc(C(=O)N2CCCCC2)c1 [Compound 385]
- Plant response rating, Groundsel (common groundsel; [3]): 0
- Plant response rating, Groundsel (common groundsel; [4]): 0
- Plant response rating, Groundsel (common groundsel; [5]): 60
- Plant response rating, Guineagrass (guineagrass; [4]): 60
- Plant response rating, Guineagrass (guineagrass; [5]): 100
- Plant response rating, Crabgrass, Large (large crabgrass; [3]): 80
- Plant response rating, Crabgrass, Large (large crabgrass; [4]): 80
- Plant response rating, Crabgrass, Large (large crabgrass; [5]): 80
- Plant response rating, Bromegrass, Downy (downy bromegrass; [3]): 10
- Plant response rating, Bromegrass, Downy (downy bromegrass; [4]): 10
- Plant response rating, Bromegrass, Downy (downy bromegrass; [5]): 20
- Plant response rating, Goosegrass (goosegrass; [3]): 20
- Plant response rating, Goosegrass (goosegrass; [4]): 20
- Plant response rating, Goosegrass (goosegrass; [5]): 50
- Plant response rating, Mallow (common mallow; [3]): 10
- Plant response rating, Mallow (common mallow; [4]): 10
- Plant response rating, Mallow (common mallow; [5]): 20
- Plant response rating, Morningglory (pitted morningglory; [3]): 10
- Plant response rating, Morningglory (pitted morningglory; [4]): 10
- Plant response rating, Morningglory (pitted morningglory; [5]): 10
- Plant response rating, Horseweed (Canada horseweed; [3]): 0
- Plant response rating, Horseweed (Canada horseweed; [5]): 0
